{"source": "patent US8959984B2", "about": "“Proteome-wide quantification of small molecule binding to cellular target proteins” (priority 2007, dated 2015)", "assay_in_all_cases": "binding to AX14596 beads (HeLa lysate, SILAC MS)", "key": {"PKD2 (PRKD2)": {"molecular_target": "PKD2 (PRKD2) (Homo sapiens, UniProt Q9BZL6)", "sequence (Q9BZL6 whole entry)": "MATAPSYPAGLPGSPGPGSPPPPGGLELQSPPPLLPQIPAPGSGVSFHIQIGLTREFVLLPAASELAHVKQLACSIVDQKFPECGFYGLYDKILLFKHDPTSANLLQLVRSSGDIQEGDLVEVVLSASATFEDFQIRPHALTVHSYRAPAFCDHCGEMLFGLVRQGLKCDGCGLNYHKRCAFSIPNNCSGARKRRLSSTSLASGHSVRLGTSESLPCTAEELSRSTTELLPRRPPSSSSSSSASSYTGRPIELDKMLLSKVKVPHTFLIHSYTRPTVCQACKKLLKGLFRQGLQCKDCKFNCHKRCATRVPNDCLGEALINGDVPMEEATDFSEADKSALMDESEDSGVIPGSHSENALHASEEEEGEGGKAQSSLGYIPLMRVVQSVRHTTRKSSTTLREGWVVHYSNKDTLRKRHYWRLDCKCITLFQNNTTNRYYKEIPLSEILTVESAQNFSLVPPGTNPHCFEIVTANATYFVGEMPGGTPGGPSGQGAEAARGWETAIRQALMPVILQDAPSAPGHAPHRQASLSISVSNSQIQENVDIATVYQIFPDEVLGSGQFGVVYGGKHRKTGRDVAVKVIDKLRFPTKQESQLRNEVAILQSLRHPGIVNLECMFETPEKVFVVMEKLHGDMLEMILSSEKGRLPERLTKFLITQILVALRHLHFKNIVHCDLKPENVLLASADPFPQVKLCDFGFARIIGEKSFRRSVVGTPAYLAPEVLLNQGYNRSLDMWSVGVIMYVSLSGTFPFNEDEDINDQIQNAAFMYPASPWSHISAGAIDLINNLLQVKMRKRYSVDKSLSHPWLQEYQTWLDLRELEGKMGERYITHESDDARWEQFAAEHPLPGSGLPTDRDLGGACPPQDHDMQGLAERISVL", "experimental": "(§1) Differentially SILAC-encoded cell lysates were either incubated with the inhibitor beads displaying immobilized AX14596 or control resin devoid of ligand. In parallel, the supernatant from the first binding step was subjected to a second incubation with the AX14596 resin (FIG. 4). The resulting three elution fractions were combined, resolved by gel electrophoresis, proteolytically digested and the relative abundance of the retained proteins quantified. Proteins showing considerable binding to the control resin were identified as non-specific interactors and therefore not considered further. […] These target-specific ratios were similar in “label switch” experiments (FIGS. 6a and 6c). The binding equilibrium was determined in parallel control SILAC experiments as well as the excess of the immobilized compound over its cellular targets, the excess preferably being a molar excess (FIG. 7 and FIG. 8).\n(§2) Cysteine carbamidomethylation was set as a fixed modification and N-acetyl protein and oxidized methionine were allowed as variable modifications. Spectra that were determined to result from heavy labeled peptides in the pre-search detection of SILAC partners by MaxQuant were searched with the fixed modifications Lys^4, Lys^8, Arg^6 and Arg^10, whereas MS/MS spectra for which no SILAC state could be assigned before database searching were searched with Lys^4, Lys^8, Arg^6 and Arg^10 as variable modifications. The mass tolerance was set to 5 ppm for monoisotopic precursor ions and to 0.5 Da for MS/MS peaks. The minimum peptide length was set to 6 amino acids and up to three missed cleavages and three isotopically labeled amino acids were permitted per peptide. The accepted false discovery rate (FDR) was 1% for the proteins and peptides. The cut-off for the posterior error probability (PEP) of peptides was set to 10%. Peptide PEPs were determined by generating Mascot score and peptide-length-dependent histograms for both the forward and the reverse hits and then deriving the probability of a false identification for a given top-scoring peptide using Bayes' theorem. The PEPs of peptides belonging to the same proteins were then multiplied. Each peptide sequence was considered only once with the lowest PEP determined in case of multiple sequencing of the same isotopic pattern or of peptide species with different SILAC, charge or modification states. Proteins were then sorted according to their products of their peptide PEPs and included until a FDR of 1% was reached according to the fraction of reverse proteins contained in the protein list. In addition to the FDR threshold applied for protein identification, proteins were only included when they were identified with at least two peptides (of which one was required to be unique for the protein) and quantified if at least on quantifiable SILAC pair was associated with them. Outliers were not removed as protein ratios were calculated as the median instead of the average of all peptide ratios. For peptides shared among different identified proteins, SILAC ratios were only considered for the ratio of the protein identified with the highest number of unique peptides. Protein ratios for the different in vitro association experiments were corrected for the initial SILAC pooling ratio, which was determined from the median of protein ratios in pooled SILAC-encoded cell extracts."}, "ACAD10": {"molecular_target": "T1, ACAD10 (Homo sapiens, UniProt Q6JQN1)", "T1 sequence (Q6JQN1 1-1059)": "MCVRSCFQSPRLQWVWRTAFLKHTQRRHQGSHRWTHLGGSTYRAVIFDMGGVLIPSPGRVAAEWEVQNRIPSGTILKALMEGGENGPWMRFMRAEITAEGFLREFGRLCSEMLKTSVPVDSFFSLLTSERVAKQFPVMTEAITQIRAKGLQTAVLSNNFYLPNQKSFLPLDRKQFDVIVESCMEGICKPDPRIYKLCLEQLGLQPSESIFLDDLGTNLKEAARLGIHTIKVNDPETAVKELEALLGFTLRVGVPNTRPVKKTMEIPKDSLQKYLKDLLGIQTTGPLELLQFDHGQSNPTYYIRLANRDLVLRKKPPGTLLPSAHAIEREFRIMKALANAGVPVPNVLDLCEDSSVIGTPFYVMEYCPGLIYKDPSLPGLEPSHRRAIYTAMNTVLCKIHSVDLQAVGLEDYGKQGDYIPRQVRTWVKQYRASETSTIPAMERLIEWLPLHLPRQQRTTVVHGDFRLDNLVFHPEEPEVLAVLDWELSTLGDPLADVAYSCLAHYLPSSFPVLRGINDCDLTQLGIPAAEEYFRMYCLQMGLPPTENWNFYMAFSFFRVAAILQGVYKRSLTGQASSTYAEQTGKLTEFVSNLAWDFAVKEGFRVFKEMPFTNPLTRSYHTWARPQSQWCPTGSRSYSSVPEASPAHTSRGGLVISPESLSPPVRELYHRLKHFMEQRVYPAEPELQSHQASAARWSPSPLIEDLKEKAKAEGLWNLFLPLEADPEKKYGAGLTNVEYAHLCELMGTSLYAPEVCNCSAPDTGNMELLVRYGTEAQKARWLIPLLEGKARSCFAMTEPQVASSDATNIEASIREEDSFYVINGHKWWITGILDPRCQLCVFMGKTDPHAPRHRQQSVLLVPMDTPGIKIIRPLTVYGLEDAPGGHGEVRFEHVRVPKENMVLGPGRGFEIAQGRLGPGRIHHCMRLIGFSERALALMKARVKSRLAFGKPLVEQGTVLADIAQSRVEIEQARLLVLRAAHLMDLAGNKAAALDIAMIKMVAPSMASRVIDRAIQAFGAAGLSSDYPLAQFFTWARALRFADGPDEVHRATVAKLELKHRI", "experimental": "as §1, §2"}, "JNK2 (MAPK9)": {"molecular_target": "JNK2 (MAPK9) (Homo sapiens, UniProt P45984)", "sequence (P45984 whole entry)": "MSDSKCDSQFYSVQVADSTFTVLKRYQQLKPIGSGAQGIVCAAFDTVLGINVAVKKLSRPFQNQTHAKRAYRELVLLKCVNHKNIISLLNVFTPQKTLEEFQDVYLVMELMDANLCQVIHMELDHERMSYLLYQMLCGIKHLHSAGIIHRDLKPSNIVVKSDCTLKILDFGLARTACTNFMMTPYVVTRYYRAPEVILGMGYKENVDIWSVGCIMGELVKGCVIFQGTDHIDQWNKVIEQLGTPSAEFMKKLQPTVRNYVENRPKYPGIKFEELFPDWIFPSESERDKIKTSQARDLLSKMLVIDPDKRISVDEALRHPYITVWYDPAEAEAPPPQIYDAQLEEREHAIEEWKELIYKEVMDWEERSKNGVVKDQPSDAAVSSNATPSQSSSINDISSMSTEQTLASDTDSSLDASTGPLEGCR", "experimental": "as §1, §2"}}, "data": [{"smiles": "COc1cc2ncnc(Nc3ccc(F)c(Cl)c3)c2cc1OCCCN", "note": "[AX14596]", "values": [{"measurement": "Ki", "setting": "PKD2 (PRKD2)", "result": 385, "unit": "µM"}, {"measurement": "r (3 mg/1 mg lysate)", "setting": "PKD2 (PRKD2)", "result": 2.53}, {"measurement": "r (5 h/2.5 h inc. time)", "setting": "PKD2 (PRKD2)", "result": 0.96}, {"measurement": "rAVERAGE (2. inc/1. inc)", "setting": "PKD2 (PRKD2)", "result": 0.79}, {"measurement": "rAVERAGE (control/1. inc)", "setting": "PKD2 (PRKD2)", "result": 0.08}, {"measurement": "Ki", "setting": "ACAD10", "result": 108, "unit": "µM"}, {"measurement": "r (3 mg/1 mg lysate)", "setting": "ACAD10", "result": 8.45}, {"measurement": "r (5 h/2.5 h inc. time)", "setting": "ACAD10", "result": 0.48}, {"measurement": "rAVERAGE (2. inc/1. inc)", "setting": "ACAD10", "result": 0.52}, {"measurement": "rAVERAGE (control/1. inc)", "setting": "ACAD10", "result": 0.08}, {"measurement": "Ki", "setting": "JNK2 (MAPK9)", "result": 110, "unit": "µM"}, {"measurement": "r (3 mg/1 mg lysate)", "setting": "JNK2 (MAPK9)", "result": 2.58}, {"measurement": "r (5 h/2.5 h inc. time)", "setting": "JNK2 (MAPK9)", "result": 0.95}, {"measurement": "rAVERAGE (2. inc/1. inc)", "setting": "JNK2 (MAPK9)", "result": 0.52}, {"measurement": "rAVERAGE (control/1. inc)", "setting": "JNK2 (MAPK9)", "result": 0.03}, {"measurement": "% BOUND", "setting": "JNK2 (MAPK9); bound to AX14596 beads", "result": 48, "unit": "%"}]}]}
